Assay results: PubChem BioAssay (NCI)
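Interpolation was linear, between the two tested concentrations surrounding the appropriate level; five concentrations were tested over 48 hours in 96-well plates. At the TGI there is no net growth.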

Assays:
Assay in all cases: NCI anticancer screen, dose series, 48 h
SK-MEL-2 melanoma = system: SK-MEL-2 melanoma
HOP-92 NSCLC = system: HOP-92 NSCLC
HOP-62 NSCLC = system: HOP-62 NSCLC
UO-31 renal = system: UO-31 renal
CCRF-CEM leukemia = system: CCRF-CEM leukemia
LOX IMVI melanoma = system: LOX IMVI melanoma
SN12C renal = system: SN12C renal
A549 NSCLC = system: A549 NSCLC
NCI-H522 lung = system: NCI-H522 lung
M14 melanoma = system: M14 melanoma
SK-MEL-28 melanoma = system: SK-MEL-28 melanoma
SF-268 CNS = system: SF-268 CNS
SNB-19 CNS = system: SNB-19 CNS
RPMI-8226 leukemia = system: RPMI-8226 leukemia
CAKI-1 renal = system: CAKI-1 renal
TK-10 renal = system: TK-10 renal
SW-620 colon = system: SW-620 colon
A498 renal = system: A498 renal
SR leukemia = system: SR leukemia
HCT-15 colon = system: HCT-15 colon
LXFL 529 NSCLC = system: LXFL 529 NSCLC
DLD-1 colon = system: DLD-1 colon
SK-MEL-5 melanoma = system: SK-MEL-5 melanoma
HCC-2998 colon = system: HCC-2998 colon
OVCAR-3 ovarian = system: OVCAR-3 ovarian
HT29 colon = system: HT29 colon
KM20L2 colon = system: KM20L2 colon
HCT-116 colon = system: HCT-116 colon
HL-60(TB) leukemia = system: HL-60(TB) leukemia
UACC-62 melanoma = system: UACC-62 melanoma
SK-OV-3 ovarian = system: SK-OV-3 ovarian
SNB-78 CNS = system: SNB-78 CNS
EKVX NSCLC = system: EKVX NSCLC
KM12 colon = system: KM12 colon
NCI-H226 lung = system: NCI-H226 lung
SF-539 CNS = system: SF-539 CNS
M19-MEL melanoma = system: M19-MEL melanoma
SNB-75 CNS = system: SNB-75 CNS
NCI-H23 lung = system: NCI-H23 lung
UACC-257 melanoma = system: UACC-257 melanoma
U251 CNS = system: U251 CNS
IGROV1 ovarian = system: IGROV1 ovarian
DMS 273 small cell lung = system: DMS 273 small cell lung
OVCAR-5 ovarian = system: OVCAR-5 ovarian
RXF 393 renal = system: RXF 393 renal
OVCAR-8 ovarian = system: OVCAR-8 ovarian
MOLT-4 leukemia = system: MOLT-4 leukemia
NCI-H460 lung = system: NCI-H460 lung
786-0 renal = system: 786-0 renal
MALME-3M melanoma = system: MALME-3M melanoma
HOP-18 NSCLC = system: HOP-18 NSCLC
OVCAR-4 ovarian = system: OVCAR-4 ovarian
ACHN renal = system: ACHN renal
K-562 leukemia = system: K-562 leukemia
COLO 205 colon = system: COLO 205 colon
SF-295 CNS = system: SF-295 CNS
DMS 114 small cell lung = system: DMS 114 small cell lung

`COc1ccc(C2[C@H]3C(=O)N(c4ccc(Cc5ccc(N6C(=O)[C@@H]7ON(c8ccccc8)C(c8ccc(OC)cc8)[C@@H]7C6=O)cc5)cc4)C(=O)[C@H]3ON2c2ccccc2)cc1` (stereo partly specified) was tested, and the TGI (SK-MEL-2 melanoma) was over 100 µM, the TGI (HOP-92 NSCLC) was over 100 µM and the TGI (HOP-62 NSCLC) was over 100 µM. It also gave a TGI (UO-31 renal) of over 100 µM, a TGI (CCRF-CEM leukemia) of over 100 µM and a TGI (LOX IMVI melanoma) of over 100 µM. It also gave a TGI (SN12C renal) of over 100 µM, a TGI (A549 NSCLC) of over 100 µM and a TGI (NCI-H522 lung) of over 100 µM. For the same compound, the TGI (M14 melanoma) was 84.7 µM, the TGI (SK-MEL-28 melanoma) was over 100 µM and the TGI (SF-268 CNS) was over 100 µM. For the same compound, the TGI (SNB-19 CNS) was over 100 µM, the TGI (RPMI-8226 leukemia) was over 100 µM and the TGI (CAKI-1 renal) was over 100 µM. It also gave a TGI (TK-10 renal) of over 100 µM, a TGI (SW-620 colon) of over 100 µM and a TGI (A498 renal) of over 100 µM. It also gave a TGI (SR leukemia) of over 100 µM, a TGI (HCT-15 colon) of over 100 µM and a TGI (LXFL 529 NSCLC) of over 100 µM. The TGI (DLD-1 colon) was over 100 µM, the TGI (SK-MEL-5 melanoma) was over 100 µM and the TGI (HCC-2998 colon) was over 100 µM. It also gave a TGI (OVCAR-3 ovarian) of over 100 µM, a TGI (HT29 colon) of over 100 µM and a TGI (KM20L2 colon) of over 100 µM. It also gave a TGI (HCT-116 colon) of over 100 µM, a TGI (HL-60(TB) leukemia) of over 100 µM and a TGI (UACC-62 melanoma) of over 100 µM. It also gave a TGI (SK-OV-3 ovarian) of over 100 µM, a TGI (SNB-78 CNS) of over 100 µM and a TGI (EKVX NSCLC) of over 100 µM. For the same compound, the TGI (KM12 colon) was over 100 µM, the TGI (NCI-H226 lung) was over 100 µM and the TGI (SF-539 CNS) was over 100 µM. The TGI (M19-MEL melanoma) was over 100 µM, the TGI (SNB-75 CNS) was over 100 µM and the TGI (NCI-H23 lung) was over 100 µM. For the same compound, the TGI (UACC-257 melanoma) was over 100 µM, the TGI (U251 CNS) was over 100 µM and the TGI (IGROV1 ovarian) was over 100 µM. It also gave a TGI (DMS 273 small cell lung) of over 100 µM, a TGI (OVCAR-5 ovarian) of over 100 µM and a TGI (RXF 393 renal) of over 100 µM. It also gave a TGI (OVCAR-8 ovarian) of over 100 µM, a TGI (MOLT-4 leukemia) of over 100 µM and a TGI (NCI-H460 lung) of over 100 µM. The TGI (786-0 renal) was over 100 µM, the TGI (MALME-3M melanoma) was over 100 µM and the TGI (HOP-18 NSCLC) was over 100 µM. For the same compound, the TGI (OVCAR-4 ovarian) was over 100 µM, the TGI (ACHN renal) was over 100 µM and the TGI (K-562 leukemia) was over 100 µM. It also gave a TGI (COLO 205 colon) of over 100 µM and a TGI (SF-295 CNS) of over 100 µM.
For `O=[N+]([O-])c1ccc(C2=NN(c3ccccc3)C[N+](c3ccc(Br)cc3)=N2)cc1`, the TGI (SK-MEL-2 melanoma) was over 100 µM, the TGI (HOP-92 NSCLC) was over 100 µM and the TGI (HOP-62 NSCLC) was over 100 µM. The TGI (UO-31 renal) was over 100 µM, the TGI (SN12C renal) was over 100 µM and the TGI (A549 NSCLC) was over 100 µM. It also gave a TGI (NCI-H522 lung) of over 100 µM, a TGI (M14 melanoma) of over 100 µM and a TGI (SK-MEL-28 melanoma) of over 100 µM. For the same compound, the TGI (SF-268 CNS) was over 100 µM, the TGI (SNB-19 CNS) was over 100 µM and the TGI (RPMI-8226 leukemia) was over 100 µM. For the same compound, the TGI (CAKI-1 renal) was over 100 µM, the TGI (TK-10 renal) was over 100 µM and the TGI (SW-620 colon) was over 100 µM. The TGI (A498 renal) was over 100 µM, the TGI (SR leukemia) was over 100 µM and the TGI (HCT-15 colon) was over 100 µM. For the same compound, the TGI (LXFL 529 NSCLC) was over 100 µM, the TGI (DLD-1 colon) was over 100 µM and the TGI (SK-MEL-5 melanoma) was over 100 µM. It also gave a TGI (HCC-2998 colon) of over 100 µM, a TGI (HT29 colon) of over 100 µM and a TGI (KM20L2 colon) of over 100 µM. For the same compound, the TGI (HCT-116 colon) was over 100 µM, the TGI (UACC-62 melanoma) was over 100 µM and the TGI (SK-OV-3 ovarian) was over 100 µM. The TGI (SNB-78 CNS) was over 100 µM, the TGI (EKVX NSCLC) was over 100 µM and the TGI (KM12 colon) was over 100 µM. It also gave a TGI (NCI-H226 lung) of over 100 µM, a TGI (SF-539 CNS) of over 100 µM and a TGI (M19-MEL melanoma) of over 100 µM. For the same compound, the TGI (SNB-75 CNS) was over 100 µM, the TGI (NCI-H23 lung) was over 100 µM and the TGI (UACC-257 melanoma) was over 100 µM. The TGI (U251 CNS) was over 100 µM, the TGI (IGROV1 ovarian) was over 100 µM and the TGI (DMS 273 small cell lung) was over 100 µM. The TGI (OVCAR-5 ovarian) was over 100 µM, the TGI (RXF 393 renal) was 79.8 µM and the TGI (OVCAR-8 ovarian) was over 100 µM. For the same compound, the TGI (MOLT-4 leukemia) was over 100 µM, the TGI (NCI-H460 lung) was over 100 µM and the TGI (786-0 renal) was over 100 µM. For the same compound, the TGI (MALME-3M melanoma) was over 100 µM, the TGI (HOP-18 NSCLC) was over 100 µM and the TGI (OVCAR-4 ovarian) was over 100 µM. The TGI (ACHN renal) was over 100 µM, the TGI (K-562 leukemia) was over 100 µM and the TGI (COLO 205 colon) was over 100 µM. The TGI (SF-295 CNS) was over 100 µM.
In the case of `Nc1cc(-c2ccccc2)nn1-c1nsc2ccccc12`, the TGI (SK-MEL-2 melanoma) is reported as over 100 µM, the TGI (HOP-92 NSCLC) is reported as over 100 µM and the TGI (HOP-62 NSCLC) is reported as over 100 µM. The TGI (UO-31 renal) was over 100 µM, the TGI (CCRF-CEM leukemia) was 62.3 µM and the TGI (LOX IMVI melanoma) was over 100 µM. For the same compound, the TGI (SN12C renal) was over 100 µM, the TGI (A549 NSCLC) was over 100 µM and the TGI (M14 melanoma) was over 100 µM. It also gave a TGI (SK-MEL-28 melanoma) of over 100 µM, a TGI (SF-268 CNS) of over 100 µM and a TGI (SNB-19 CNS) of over 100 µM. It also gave a TGI (RPMI-8226 leukemia) of over 100 µM, a TGI (TK-10 renal) of over 100 µM and a TGI (SW-620 colon) of over 100 µM. For the same compound, the TGI (SR leukemia) was over 100 µM, the TGI (HCT-15 colon) was over 100 µM and the TGI (LXFL 529 NSCLC) was over 100 µM. For the same compound, the TGI (SK-MEL-5 melanoma) was over 100 µM, the TGI (HCC-2998 colon) was over 100 µM and the TGI (OVCAR-3 ovarian) was over 100 µM. The TGI (HT29 colon) was over 100 µM, the TGI (KM20L2 colon) was over 100 µM and the TGI (HCT-116 colon) was over 100 µM. It also gave a TGI (HL-60(TB) leukemia) of over 100 µM, a TGI (UACC-62 melanoma) of over 100 µM and a TGI (SNB-78 CNS) of over 100 µM. It also gave a TGI (EKVX NSCLC) of over 100 µM, a TGI (KM12 colon) of over 100 µM and a TGI (SF-539 CNS) of over 100 µM. The TGI (DMS 114 small cell lung) was over 100 µM, the TGI (M19-MEL melanoma) was over 100 µM and the TGI (SNB-75 CNS) was 56.9 µM. It also gave a TGI (NCI-H23 lung) of over 100 µM, a TGI (UACC-257 melanoma) of over 100 µM and a TGI (U251 CNS) of over 100 µM. It also gave a TGI (IGROV1 ovarian) of over 100 µM, a TGI (DMS 273 small cell lung) of over 100 µM and a TGI (OVCAR-5 ovarian) of over 100 µM. For the same compound, the TGI (RXF 393 renal) was 61.7 µM, the TGI (OVCAR-8 ovarian) was over 100 µM and the TGI (MOLT-4 leukemia) was over 100 µM. It also gave a TGI (NCI-H460 lung) of over 100 µM, a TGI (HOP-18 NSCLC) of over 100 µM and a TGI (OVCAR-4 ovarian) of over 100 µM. For the same compound, the TGI (ACHN renal) was over 100 µM, the TGI (K-562 leukemia) was over 100 µM and the TGI (COLO 205 colon) was over 100 µM.
